The results in this text go back to US20200255478A1, “NOVEL COMPOUNDS ACTIVATING THE NRF2 PATHWAY” (Almirall, S.A., priority 2017, published 2020).

pIC50: −log10 of the molar value. Starred links: 1 amine or outer side, 2 acyl side, 3 side chain; linkers in the order of their positions; H or OH if unused. Positions of bridges follow the written chain, without caps; N, C: chain ends. Non-standard residues stand in square brackets, D forms with d. Residues, ends and D or L forms follow the SMILES beside them. *: point of attachment. Trp(2-yl) = O=C([C@H](Cc1c([*:3])[nH]c2ccccc12)N[*:1])[*:2]; X8 = O=C([C@H](Cc1cccc([*:3])c1)N[*:1])[*:2]; mXylylene = c1cc(C[*:1])cc(C[*:2])c1; oXylylene = c1ccc(C[*:2])c(C[*:1])c1; X2 = c1ccc2cc(C[*:2])c(C[*:1])cc2c1; Stearoyl = CCCCCCCCCCCCCCCCCC(=O)*; βAla = NCCC(=O)O

For one assay, the target named is Keap1-Maltose Binding Protein (MBP tag) (Homo sapiens, UniProt Q14145). In words: Nrf2-Keap1 HTRF (TR-FRET) binding assay: displacement of biotinylated ETGE peptide from Keap1-MBP.
Sequence of Keap1-Maltose Binding Protein (MBP tag) (Q14145 whole entry): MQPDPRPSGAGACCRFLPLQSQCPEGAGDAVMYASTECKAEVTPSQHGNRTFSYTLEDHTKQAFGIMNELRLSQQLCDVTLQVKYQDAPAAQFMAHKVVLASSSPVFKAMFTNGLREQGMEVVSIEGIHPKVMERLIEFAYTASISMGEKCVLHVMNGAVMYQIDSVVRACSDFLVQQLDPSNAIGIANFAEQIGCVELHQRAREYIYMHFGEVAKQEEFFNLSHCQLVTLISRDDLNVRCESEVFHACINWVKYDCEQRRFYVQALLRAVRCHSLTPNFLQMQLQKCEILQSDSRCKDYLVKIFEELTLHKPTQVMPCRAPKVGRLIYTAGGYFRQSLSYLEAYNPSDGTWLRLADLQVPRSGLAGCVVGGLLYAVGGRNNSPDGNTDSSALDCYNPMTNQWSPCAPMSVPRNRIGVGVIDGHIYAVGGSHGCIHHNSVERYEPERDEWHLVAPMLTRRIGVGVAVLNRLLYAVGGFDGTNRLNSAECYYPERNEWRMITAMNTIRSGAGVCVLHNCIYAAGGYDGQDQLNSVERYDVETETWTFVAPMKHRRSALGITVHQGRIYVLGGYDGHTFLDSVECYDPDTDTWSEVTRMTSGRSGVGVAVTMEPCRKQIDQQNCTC
Details: not given
As for `CC(C)C[C@@H]1NC(=O)[C@@H]2CCCN2C(=O)[C@H](CC(C)C)NC(=O)[C@@H]2CSc3[nH]c4ccccc4c3C[C@H](NC(=O)[C@H](CCC(N)=O)NC1=O)C(=O)N[C@@H](CC(=O)O)C(=O)N[C@@H](CCC(=O)O)C(=O)N[C@@H](CCC(=O)O)C(=O)N[C@@H]([C@@H](C)O)C(=O)NCC(=O)N[C@@H](CCC(=O)O)C(=O)N2` [Example 11, &^1Leu-Gln-Trp(indol-2-yl-&^2)-Asp-Glu-Glu-Thr-Gly-Glu-Cys(&^2)-Leu-Pro&^1] (cyclo(CLPLQ[Trp(2-yl)]DEETGE); thioether 1-6), the pIC50 (in general, the negative decadic logarithm of the IC50, by convention in mol/L) is 7.00 to 9.00. Regarding `CCCCCCCCCCCCCCCC(=O)N[C@H]1C[C@H]2C(=O)N[C@@H](CCC(N)=O)C(=O)N[C@H]3CSCc4ccccc4CSC[C@H](NC(=O)[C@H](CCC(=O)O)NC(=O)CNC(=O)[C@H]([C@@H](C)O)NC(=O)[C@H](CCC(=O)O)NC(=O)[C@@H]4CCCN4C(=O)[C@H](CC(=O)O)NC3=O)C(=O)N[C@@H](CC(C)C)C(=O)N3CCC[C@@H]3C(=O)N2C1` [Example 83, {[&^1Pro((4S)-NH-Palmitoyl)-Gln-Cys(&^2)-Asp-Pro-Glu-Thr-Gly-Glu-Cys(&^3)-Leu-D-Pro&^1][&^2(1,2-phenylenediyl)dimethylene&^3]}], the pIC50 was over 9.00. In the case of `CCCCCCCCCCCCCCCCCC(=O)N[C@H]1C[C@@H](C(=O)N[C@@H](CCC(N)=O)C(=O)N[C@H]2CSCc3ccccc3CSC[C@@H](C(=O)N[C@@H](CC(C)C)C(=O)N3CCC[C@@H]3C(N)=O)NC(=O)[C@H](CCC(=O)O)NC(=O)CNC(=O)[C@H]([C@@H](C)O)NC(=O)[C@H](CCC(=O)O)NC(=O)[C@@H]3CCCN3C(=O)[C@H](CC(=O)O)NC2=O)N(C(C)=O)C1` [Example 75, {[Acetyl-Pro((4S)-NH-Stearyl)-Gln-Cys(&^1)-Asp-Pro-Glu-Thr-Gly-Glu-Cys(&^2)-Leu-D-Pro-NH2][&^1(1,2-phenylenediyl)dimethylene^2]}], the pIC50 was 7.00 to 9.00. The same measure, in the same setting: the same measure for `CCCCCCCCCCCCCCCCCC(=O)N[C@H]1C[C@H]2C(=O)N[C@@H](CCC(N)=O)C(=O)N[C@H]3CSCC4(CCOCC4)CSC[C@H](NC(=O)[C@H](CCC(=O)O)NC(=O)CNC(=O)[C@H]([C@@H](C)O)NC(=O)[C@H](CCC(=O)O)NC(=O)[C@@H]4CCCN4C(=O)[C@H](CC(=O)O)NC3=O)C(=O)N[C@@H](CC(C)C)C(=O)N3CCC[C@@H]3C(=O)N2C1` [Example 100, {[&^1Pro((4S)-NH-Stearyl)-Gln-Cys(&^2)-Asp-Pro-Glu-Thr-Gly-Glu-Cys(&^3)-Leu-D-Pro&^1][&^2(tetrahydro-2H-pyran-4,4-diyl)dimethylene&^3]}]: 7.00 to 9.00.

As for `CC(C)C[C@H](NC(=O)[C@@H]1CSCc2c(F)c(F)c(F)c(F)c2CSC[C@H](NC(=O)[C@H](CCC(N)=O)NC(=O)[C@@H](N)CC(C)C)C(=O)N[C@@H](CC(=O)O)C(=O)N2CCC[C@H]2C(=O)N[C@@H](CCC(=O)O)C(=O)N[C@@H]([C@@H](C)O)C(=O)NCC(=O)N[C@@H](CCC(=O)O)C(=O)N1)C(=O)N1CCC[C@H]1C(=O)NCCC(=O)N[C@@H](CCCNC(=N)N)C(=O)N[C@@H](CCCCN)C(=O)N[C@@H](CCCCN)C(=O)N[C@@H](CCCNC(=N)N)C(=O)N[C@@H](CCCNC(=N)N)C(=O)N[C@@H](CCC(N)=O)C(=O)N[C@@H](CCCNC(=N)N)C(=O)N[C@@H](CCCNC(=N)N)C(=O)N[C@@H](CCCNC(=N)N)C(N)=O` [Example 56], the pIC50 is over 9.00.

The same assay, now with this note: HTRF (TR-FRET); displacement of ETGE-biotin from Keap1-MBP; values banded into grades; read-out: Binding (IC50) ETGE-Keap1.
As for `CCCCCCCCCCCCCCCCCC(=O)NCCC(=O)N[C@H](C(=O)N[C@H](C(=O)N[C@H]1CSCc2ccccc2CSC[C@@H](C(=O)N[C@H](C(=O)N[C@H](C(N)=O)C(C)C)C(C)C)NC(=O)[C@H](CCC(=O)O)NC(=O)CNC(=O)[C@H]([C@@H](C)O)NC(=O)[C@H](CCC(=O)O)NC(=O)[C@@H]2CCCN2C(=O)[C@H](CC(=O)O)NC1=O)C(C)C)C(C)C` [Example 52, {[Stearyl-βAla-Val-Val-Cys(&^1)-Asp-Pro-Glu-Thr-Gly-Glu-Cys(&^2)-Val-Val-NH2][&^1(1,2-phenylenediyl)dimethylene&^2]}] ({Stearoyl-βAla}-VVCDPETGECVV-NH2; linker 3-10 via oXylylene), the pIC50 is 7.00 to 9.00. Same read-out and setting: the figure for `CC(C)C[C@H](NC(=O)[C@@H]1CSCc2cccc(c2)CSC[C@H](NC(=O)[C@H](CCC(N)=O)NC(=O)[C@@H](N)CC(C)C)C(=O)N[C@@H](CC(=O)O)C(=O)N[C@@H](C)C(=O)N[C@@H](CCC(=O)O)C(=O)N[C@@H]([C@@H](C)O)C(=O)NCC(=O)N[C@@H](CCC(=O)O)C(=O)N1)C(=O)N1CCC[C@H]1C(=O)O` [Example 14, {[H-Leu-Gln-Cys(&^1)-Asp-Ala-Glu-Thr-Gly-Glu-Cys(&^2)-Leu-Pro-OH][&^1(1,3-phenylenediyl)dimethylene&^2]}] (H-LQCDAETGECLP-OH; linker 3-10 via mXylylene) is over 9.00; for `CCCCCCCCCCCCCCCCCC(=O)NCCC(=O)N(C)[C@@H](CC(C)C)C(=O)N[C@@H](CCC(N)=O)C(=O)N[C@H]1CSCc2ccccc2CSC[C@@H](C(=O)N[C@@H](CC(C)C)C(=O)N2CCC[C@H]2C(N)=O)NC(=O)[C@H](CCC(=O)O)NC(=O)CNC(=O)[C@H]([C@@H](C)O)NC(=O)[C@H](CCC(=O)O)NC(=O)[C@@H]2CCCN2C(=O)[C@H](CC(=O)O)NC1=O` [Example 45, {[Stearyl-βAla-MeLeu-Gln-Cys(&^1)-Asp-Pro-Glu-Thr-Gly-Glu-Cys(&^2)-Leu-Pro-NH2][&^1(1,2-phenylenediyl)dimethylene&^2]}] it is 7.00 to 9.00. The same measure, in the same setting: the figure for `CC(C)C[C@H](NC(=O)[C@@H]1CSCc2cccc(c2)CSC[C@H](NC(=O)[C@H](CCC(N)=O)NC(=O)[C@@H](N)CC(C)C)C(=O)N[C@@H](CC(=O)O)C(=O)N[C@@H](C)C(=O)N[C@@H](CCC(=O)O)C(=O)N[C@@H]([C@@H](C)O)C(=O)NCC(=O)N[C@@H](CCC(=O)O)C(=O)N1)C(=O)N1CCC[C@H]1C(=O)NCCC(=O)N[C@@H](Cc1ccc(O)cc1)C(=O)N[C@@H](C)C(=O)N[C@@H](CCCNC(=N)N)C(=O)N[C@@H](C)C(=O)N[C@@H](C)C(=O)N[C@@H](C)C(=O)N[C@@H](CCCNC(=N)N)C(=O)N[C@@H](CCC(N)=O)C(=O)N[C@@H](C)C(=O)N[C@@H](CCCNC(=N)N)C(=O)N[C@@H](C)C(N)=O` [Example 15] (H-LQCDAETGECLP[βAla]YARAAARQARA-NH2; linker 3-10 via mXylylene) is 7.00 to 9.00. Still for that read-out and setting: the same measure for `CCCCCCCCCCCCCCCCCC(=O)NCCC(=O)N[C@@H](CC(C)C)C(=O)N[C@@H](CCC(N)=O)C(=O)N[C@H]1Cc2cccc(c2)SC[C@@H](C(=O)N[C@@H](CC(C)C)C(=O)N2CCC[C@H]2C(=O)O)NC(=O)[C@H](CCC(=O)O)NC(=O)CNC(=O)[C@H]([C@@H](C)O)NC(=O)[C@H](CCC(=O)O)NC(=O)[C@@H]2CCCN2C(=O)[C@H](CC(=O)O)NC1=O` [Example 40, Stearyl-βAla-Leu-Gln-Phe(m-&^1)-Asp-Pro-Glu-Thr-Gly-Glu-Cys(&^1)-Leu-Pro-OH] ({Stearoyl-βAla}-LQ[X8]DPETGECLP-OH; thioether 3-10): 7.00 to 9.00; for `CCCCCCCCCCCCCCCCCC(=O)NCCC(=O)N[C@@H](CC(C)C)C(=O)N[C@@H](CCC(N)=O)C(=O)N[C@H]1CSCc2cc3ccccc3cc2CSC[C@@H](C(=O)N[C@@H](CC(C)C)C(=O)N2CCC[C@H]2C(=O)O)NC(=O)[C@H](CCC(=O)O)NC(=O)CNC(=O)[C@H]([C@@H](C)O)NC(=O)[C@H](CCC(=O)O)NC(=O)[C@@H]2CCCN2C(=O)[C@H](CC(=O)O)NC1=O` [Example 36, {[Stearyl-βAla-Leu-Gln-Cys(&^1)-Asp-Pro-Glu-Thr-Gly-Glu-Cys(&^2)-Leu-Pro-OH][&^1(naphthalene)2,3-diyldimethylene&^2]}] ({Stearoyl-βAla}-LQCDPETGECLP-OH; linker 3-10 via X2): 7.00 to 9.00; for `CCCCCCCCCCCCCCCCCC(=O)N[C@H]1C[C@H]2C(=O)N[C@@H](CCC(N)=O)C(=O)N[C@H]3CSCC4(COC4)CSC[C@H](NC(=O)[C@H](CCC(=O)O)NC(=O)CNC(=O)[C@H]([C@@H](C)O)NC(=O)[C@H](CCC(=O)O)NC(=O)[C@@H]4CSCN4C(=O)[C@H](CC(=O)O)NC3=O)C(=O)N[C@@H](CC(C)C)C(=O)N3CCC[C@@H]3C(=O)N2C1` [Example 97, {[&^1Pro((4S)-NH-Stearyl)-Gln-Cys(&^2)-Asp-Thz-Glu-Thr-Gly-Glu-Cys(&^3)-Leu-D-Pro&^1][&^2(3,3-oxetanediyl)dimethylene&^3]}]: over 9.00.

For `CC(=O)N[C@H]1Cc2cccc(c2)SC[C@@H](C(N)=O)NC(=O)[C@H](CCC(=O)O)NC(=O)CNC(=O)[C@H]([C@@H](C)O)NC(=O)[C@H](CCC(=O)O)NC(=O)[C@H](CCC(=O)O)NC(=O)[C@H](CC(=O)O)NC1=O` [Example 22, Acetyl-Phe(m-&^1)-Asp-Glu-Glu-Thr-Gly-Glu-Cys(&^1)-NH2] (Ac-[X8]DEETGEC-NH2; thioether 1-8), the negative-log IC50 (pIC50) was 7.00 to 9.00. For `CCCCCCCCCCCCCCCCCC(=O)NCCC(=O)N[C@@H](CC(C)C)C(=O)N[C@@H](CCC(N)=O)C(=O)N[C@H]1CSCc2ccccc2CSC[C@@H](C(=O)N[C@@H](CC(C)C)C(=O)N2CCC[C@H]2C(N)=O)NC(=O)[C@H](CCC(=O)O)NC(=O)CNC(=O)[C@H]([C@@H](C)O)NC(=O)[C@H](CCC(=O)O)NC(=O)[C@@H]2CCCN2C(=O)[C@H](CC(=O)O)NC1=O` [Example 48, {[Stearyl-βAla-Leu-Gln-Cys(&^1)-Asp-Pro-Glu-Thr-Gly-Glu-Cys(&^2)-Leu-Pro-NH2][&^1(1,2-phenylenediyl)dimethylene&^2]}] ({Stearoyl-βAla}-LQCDPETGECLP-NH2; linker 3-10 via oXylylene), the pIC50 is 7.00 to 9.00. Same read-out and setting: the same measure for `CCCCCCCCCCCCCCCCCC(=O)NCCC(=O)N[C@@H](CC(C)C)C(=O)N[C@@H](CCC(N)=O)C(=O)N[C@H]1CSCc2ccccc2CSC[C@@H](C(=O)N[C@@H](CC(C)C)C(=O)N2CCC[C@H]2C(=O)O)NC(=O)[C@H](CCC(=O)O)NC(=O)CNC(=O)[C@H]([C@@H](C)O)NC(=O)[C@H](CCC(=O)O)NC(=O)[C@@H]2CCCN2C(=O)[C@H](CC(=O)O)NC1=O` [Example 35, {[Stearyl-βAla-Leu-Gln-Cys(&^1)-Asp-Pro-Glu-Thr-Gly-G1u-Cys(&^2)-Leu-Pro-OH][&^1(1,2-phenylenediyl)dimethylene&^2]}] ({Stearoyl-βAla}-LQCDPETGECLP-OH; linker 3-10 via oXylylene): 7.00 to 9.00.
